Reference: patent publication US20060211573A1, “7-(Akenylamino)triazolopyrimidines, method for the production thereof and use thereof in controlling harmful fungi and substances containing said triazolopyrimidines” (priority 2003, published 2006)

Tested on: Alternaria solani
Assay: Activity against early blight of tomato caused by Alternaria solani (protective spray on tomato leaves)
Assay type: in vivo
Conditions: 250 ppm active compound, sprayed one day before infection, assessed after 5 days; untreated plants 100% infected
Experimental: The active compounds were prepared, separately or together, as a stock solution with 0.25% by weight of active compound in acetone or DMSO. 1% by weight of the emulsi-fier Uniperol® EL (wetting agent with an emulsifying and dispersing action based on ethoxylated alkylphenols) was added to this solution and appropriately diluted with water to the desired concentration. Leaves of pot plants of the variety “Grope Fleischtomate St. Pierre” were sprayed to runoff point with an aqueous suspension in the active compound concentration given below. On the following day, the leaves were infected with an aqueous suspension of spores of Alternaria solani in 2% Biomalz solution with a concentration of 0.17×10^6 spores/ml. The plants were subsequently placed in a chamber saturated with water vapor at temperatures between 20 and 22° C. After 5 days, leaf infection in the untreated but infected control plants had so extensively developed that the infection could be visually determined in %.

## C=CC(C)Nc1c(-c2c(F)cc(F)cc2F)c(Cl)nc2ncnn12 (stereo not shown) [I-1, 5-chloro-6-(2,4,6-trifluorophenyl)-7-(1-methyl-2-propen-1-yl)amino[1,2,4]triazolo[1,5-a]pyrimidine]
  leaf infection, visually determined in %: no infection
